Experimental data as given in patent publication US20230053941A1, “MICROEMULSIONS WITH DICAMBA SALTS HAVING IMPROVED PROPERTIES” (MONSANTO TECHNOLOGY LLC, priority 2020, published 2023).

Assay: Partition coefficient of compound (A) in solvents
Type: physicochemical
Conditions: HPLC, approximately 25° C.
Procedure: Experimental procedure for the respective solvent: (1) A solution of 10 g of compound (A) is prepared in 90 g of the respective solvent. (2) An aliquot of 10 g of the solution obtained in step (1) is added to 90 g of water in a glass bottle, which is shaken on a mechanical shaker for 4 hours at ambient temperature (approximately 25° C.). (3) The contents of the glass bottle are permitted to phase separate for 4 days at ambient temperature (approximately 25° C.). (4) Subsamples of the resulting oil and water phases are taken and analyzed by HPLC to determine the concentrations of compound (A) in oil (Co) and water phases (Cw) respectively. The subsamples are typically centrifuged before HPLC analysis to remove traces of organic solvent from the water phase.
A Partition Coefficient, analogous to the Octanol-Water Partition Coefficient, P, is calculated as Co/Cw. The Partition Coefficient is conveniently expressed as a logarithm […].
The ratio of determined concentrations of compound (A) in the solvent phase and the water phase typically is very large. […] In other cases, traces of the organic solvent are found in the water phase, even after centrifugation, so that the apparent concentration of oil-soluble herbicide observed in the water phase is misleadingly high. […]

SMILES: CCOC(=O)COc1ncccc1Oc1cc(-n2c(=O)cc(C(F)(F)F)n(C)c2=O)c(F)cc1Cl [Cmp. A, ethyl [3-[2-chloro-4-fluoro-5-(1-methyl-6-trifluoromethyl-2,4-dioxo-1,2,3,4-tetrahydropyrimidin-3-yl)phenoxy]-2-pyridyloxy]acetate]
- compound (A) in the water phase (acetophenone as organic solvent): undetectable
- compound (A) in the water phase (aromatic 200 ND as organic solvent): undetectable
